Measured values: patent US11591323B2, “Muscarinic agonists as non-steroidal and non-opioid analgesics and methods of use thereof” (Barry University, priority 2019, dated 2023)
Where two headings read alike, the source gives them in different places.

Legend:
Format in all cases: cell-based
M1 muscarinic receptor = target: T1, M1 muscarinic receptor (Homo sapiens, UniProt P11229); experiment: accumulation of IPX, M1 CHO cells transfected with G15 (M1Gq+G15); set-up: host or cells: CHO cells
T1 sequence (P11229 1-460): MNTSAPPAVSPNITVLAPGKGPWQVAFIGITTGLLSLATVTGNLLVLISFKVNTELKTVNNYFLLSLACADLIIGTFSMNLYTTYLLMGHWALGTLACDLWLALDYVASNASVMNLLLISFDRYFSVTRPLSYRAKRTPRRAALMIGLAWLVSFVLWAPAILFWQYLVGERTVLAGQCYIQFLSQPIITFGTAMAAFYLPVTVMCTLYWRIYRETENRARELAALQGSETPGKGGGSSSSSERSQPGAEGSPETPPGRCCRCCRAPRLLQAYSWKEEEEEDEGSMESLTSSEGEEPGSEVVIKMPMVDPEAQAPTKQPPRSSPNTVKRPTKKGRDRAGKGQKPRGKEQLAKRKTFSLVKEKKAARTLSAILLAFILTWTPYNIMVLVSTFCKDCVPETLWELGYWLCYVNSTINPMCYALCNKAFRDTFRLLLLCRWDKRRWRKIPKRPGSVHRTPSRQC
Method: (§1) To determine level of cAMP, cells in suspension were pre-incubated for 1 h with 0.4 μM [^3H]adenine, washed, and incubated for 10 min in the presence of isobutylmethylxanthine and 10 μM forskolin. […] Incubation was ended by addition of 0.2 ml of 2.5 M HCl to the samples. Samples were applied to alumina columns (1.5 g of alumina per column), washed with 2 ml ammonium acetate (pH=7.0) and eluted from columns with 4 ml ammonium acetate and measured by liquid scintillation spectrometry. […] The incubation was stopped by addition of 0.5 ml of chloroform methanol HCl mixture (2:1:0.1). After separation of water and organic phases, 0.6 ml of water phase was applied to Dowex columns (1.5 g of Dowex per column), washed by 20 ml of 60 mM ammonium formate/5 mM sodium borate buffer and eluted from columns with 4 ml of 1M ammonium formate/0.1 formic acid buffer and measured by liquid scintillation spectrometry.
(§2) Measurements of the production of cAMP and inositol phosphates: Levels of second messengers cAMP and inositol phosphates were determined in radiochemical chromatography assays as described previously. To determine level of cAMP, cells in suspension were pre-incubated for 1 h with 0.4 μM [^3H]adenine, washed, and incubated for 10 min in the presence of isobutylmethylxanthine and 10 μM forskolin. […] Incubation was ended by addition of 0.2 ml of 2.5 M HCl to the samples. Samples were applied to alumina columns (1.5 g of alumina per column), washed with 2 ml ammonium acetate (pH=7.0) and eluted from columns with 4 ml ammonium acetate and measured by liquid scintillation spectrometry. […] For this purpose, new CHO cell lines stably expressing promiscuous G15 G-protein and M2 or M4 receptor were generated by transfection with pCMV/hygro vector and hygromycin selection. To determine the rate of formation of inositol phosphates IPX, suspended cells were pre-incubated with 0.1 μM [^3H]myo-inositol for 60 min, washed, and incubated with 10 mM LiCl for 15 min. […] The incubation was stopped by addition of 0.5 ml of chloroform methanol HCl mixture (2:1:0.1). After separation of water and organic phases, 0.6 ml of water phase was applied to Dowex columns (1.5 g of Dowex per column), washed by 20 ml of 60 mM ammonium formate/5 mM sodium borate buffer and eluted from columns with 4 ml of 1M ammonium formate/0.1 formic acid buffer and measured by liquid scintillation spectrometry.
(§3) For bi-phasic response, curves were inhibitory and stimulatory phase were fitted separately. Operational Model of Functional Agonism
(§4) [formula] where y is functional response at concentration of tested compound x, EMAX is maximal response of the system, KA is equilibrium dissociation constant and nH is slope factor. Eq. 5 was fitted to data from functional experiments. Eq. 5 was fitted to data by the two-step procedure described earlier. […] In the second step, Eq. 5 with EMAX fixed to the value determined in the first step was fitted to individual experimental data sets. Relative Intrinsic Activity

M3 muscarinic receptor = M3 muscarinic receptor (Homo sapiens, UniProt P20309); experiment: accumulation of IPX, M3 CHO cells transfected with G15 (M3Gq+G15); set-up: host or cells: CHO cells
Method: as §1, §2, §3, §4

M2 muscarinic receptor = target: T2, M2 muscarinic receptor (Homo sapiens, UniProt P08172); experiment: accumulation of IPX, M2 CHO cells (M2Gq); set-up: host or cells: CHO cells, stably transfected; conditions: for RAi / E′MAX / τ / Δlog(τ/KA): M2Gq (↑IPX); for RAi: Table 8, relative to carbachol; for E′MAX / τ: Table 8; for Δlog(τ/KA): Table 8, to carbachol
T2 sequence (P08172 1-466): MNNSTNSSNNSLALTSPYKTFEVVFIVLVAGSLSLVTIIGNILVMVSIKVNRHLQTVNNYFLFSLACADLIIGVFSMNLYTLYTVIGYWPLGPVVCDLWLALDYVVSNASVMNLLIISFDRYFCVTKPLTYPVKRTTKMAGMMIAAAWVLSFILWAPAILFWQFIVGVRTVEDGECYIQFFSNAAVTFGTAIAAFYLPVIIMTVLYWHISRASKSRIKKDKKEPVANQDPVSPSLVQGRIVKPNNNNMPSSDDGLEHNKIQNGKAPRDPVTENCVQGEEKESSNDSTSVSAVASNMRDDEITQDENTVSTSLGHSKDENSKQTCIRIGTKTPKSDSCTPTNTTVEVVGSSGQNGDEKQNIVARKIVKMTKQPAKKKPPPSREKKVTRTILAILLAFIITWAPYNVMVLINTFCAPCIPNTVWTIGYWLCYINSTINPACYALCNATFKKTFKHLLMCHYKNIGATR
Method: as §1, §2, §3, §4

[1] = M1Gq + G15 (↑IPX), Table 8, relative to carbachol
[2] = M1Gq + G15 (↑IPX), Table 8, to carbachol
[3] = M1Gq + G15 (↑IPX), Table 8, read-out: pEC50 (converted)
[4] = M1Gq + G15 (↑IPX), Table 8, read-out: pKA (converted)
[5] = M3Gq + G15 (↑IPX), Table 8, relative to carbachol
[6] = M3Gq + G15 (↑IPX), Table 8, to carbachol
[7] = M3Gq + G15 (↑IPX), Table 8, read-out: pEC50 (converted)
[8] = M3Gq + G15 (↑IPX), Table 8, read-out: pKA (converted)

M3 muscarinic receptor, sequence (P20309 whole entry): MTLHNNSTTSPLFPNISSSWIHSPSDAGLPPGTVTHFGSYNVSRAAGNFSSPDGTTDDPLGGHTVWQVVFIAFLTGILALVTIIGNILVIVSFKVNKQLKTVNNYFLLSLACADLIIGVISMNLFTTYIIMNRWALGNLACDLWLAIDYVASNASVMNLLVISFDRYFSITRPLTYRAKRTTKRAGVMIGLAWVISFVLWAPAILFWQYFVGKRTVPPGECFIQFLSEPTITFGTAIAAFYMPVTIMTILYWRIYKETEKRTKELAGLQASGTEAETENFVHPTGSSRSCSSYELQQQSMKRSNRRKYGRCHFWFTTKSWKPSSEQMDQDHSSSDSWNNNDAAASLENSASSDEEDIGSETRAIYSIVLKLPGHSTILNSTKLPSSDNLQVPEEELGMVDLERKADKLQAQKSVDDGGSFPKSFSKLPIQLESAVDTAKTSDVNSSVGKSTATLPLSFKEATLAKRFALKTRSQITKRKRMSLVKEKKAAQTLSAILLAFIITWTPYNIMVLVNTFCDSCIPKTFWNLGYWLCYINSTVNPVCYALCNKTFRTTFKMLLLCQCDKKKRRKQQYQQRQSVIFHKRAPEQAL

SMILES | E′MAX (M1 muscarinic receptor; M1Gq + G15 (↑IPX), Table 8) [fold increase] | τ (M1 muscarinic receptor; M1Gq + G15 (↑IPX), Table 8) | RAi (M1 muscarinic receptor; [1]) | Δlog(τ/KA) (M1 muscarinic receptor; [2]) | EC50 (M1 muscarinic receptor; [3]) [nM] | Kd (M1 muscarinic receptor; [4]) [nM] | E′MAX (M3 muscarinic receptor; M3Gq + G15 (↑IPX), Table 8) [fold over basal] | τ (M3 muscarinic receptor; M3Gq + G15 (↑IPX), Table 8) | RAi (M3 muscarinic receptor; [5]) | Δlog(τ/KA) (M3 muscarinic receptor; [6]) | EC50 (M3 muscarinic receptor; [7]) [nM] | Kd (M3 muscarinic receptor; [8]) [nM] | RAi (M2 muscarinic receptor) | E′MAX (M2 muscarinic receptor) [fold over basal] | τ (M2 muscarinic receptor) | Δlog(τ/KA) (M2 muscarinic receptor) | other results
C[N+]1(Cc2cccs2)CC=CCC1.[I-] (centres unmarked) [Compound 7A, 1-methyl-1-[(thiophen-2-yl)methyl]-1,2,3,6-tetrahydropyridin-1-ium iodide] | 4.6 ± 0.4 | 0.12 ± 0.01 | 0.0111 ± 0.0002 | 1.96 ± 0.16 | 2630 | 3160 | 3.0 ± 0.3 | 0.08 ± 0.01 | 0.011 ± 0.001 | 1.94 ± 0.20 | 3160 | 3160 | 0 |  |  |  | 
O=C1CCCN1CC#CCN1CCCC1 [oxotremorine, reference compound] |  |  |  |  |  |  |  |  |  |  |  |  | 3.08 ± 0.28 | 1.60 ± 0.05 | 0.2 ± 0.1 | −0.49 ± 0.05 | EC50 (M1 muscarinic receptor): 52.5 nM; E′MAX (M1 muscarinic receptor): 25 ± 2 fold increase; Kd (M1 muscarinic receptor): 200 nM; RAi (M1 muscarinic receptor): 3.71 ± 0.29; Δlog(τ/KA) (M1 muscarinic receptor): −0.57 ± 0.06; τ (M1 muscarinic receptor): 2.6 ± 0.3; EC50 (M3 muscarinic receptor): 100 nM; E′MAX (M3 muscarinic receptor): 22 ± 2 fold over basal; Kd (M3 muscarinic receptor): 398 nM; RAi (M3 muscarinic receptor): 4.14 ± 0.38; Δlog(τ/KA) (M3 muscarinic receptor): −0.62 ± 0.06; τ (M3 muscarinic receptor): 2.9 ± 0.3; EC50 (M2 muscarinic receptor): 209 nM; Kd (M2 muscarinic receptor): 251 nM
C1=CCN(Cc2cccs2)CC1.Cl [Compound 6A, 1-[(thiophen-2-yl)methyl]-1,2,3,6-tetrahydropyridin-1-ium chloride] | 2.0 ± 0.2 | 0.03 ± 0.01 | 0.0010 ± 0.0001 | 2.98 ± 0.26 | 7940 | 7940 | 2.5 ± 0.2 | 0.06 ± 0.01 | 0.0058 ± 0.0005 | 2.23 ± 0.23 | 5010 | 5010 | 0 |  |  |  | 
C[N+](C)(C)CCOC(N)=O [carbachol, reference compound] |  |  |  |  |  |  |  |  |  |  |  |  |  | 1.91 ± 0.07 | 0.2 ± 0.1 | 0 | 
